Earlier results in patent publication US5607940A (priority 1994, dated 1997).

Tests used:
[1] = silver anode; listed as MHCl, hydrochloride
[2] = in vivo

| Structure (SMILES) | utilization of morphine [1] | time to clinically effective blood levels [2] [min] |
| --- | --- | --- |
| CN1CC[C@]23c4c5ccc(O)c4O[C@H]2[C@@H](O)C=C[C@H]3[C@H]1C5.Cl [morphine hydrochloride] | about 10% |  |
| CN1CC[C@]23c4c5ccc(O)c4O[C@H]2[C@@H](O)C=C[C@H]3[C@H]1C5 [morphine] |  | 15 to 20 |
